pIC50, pKi: −log10 of the molar value. “And” between values parts separate entries of the source, which are not always exact repeats. Identical values can stand only once.
What follows are compounds tested against PIK3CA (human) (UniProt P42336) (assay: Assessment of PIK3CA Kinase Activity). Settings: not given.
Chain of PIK3CA (human) (P42336 whole entry, looked up): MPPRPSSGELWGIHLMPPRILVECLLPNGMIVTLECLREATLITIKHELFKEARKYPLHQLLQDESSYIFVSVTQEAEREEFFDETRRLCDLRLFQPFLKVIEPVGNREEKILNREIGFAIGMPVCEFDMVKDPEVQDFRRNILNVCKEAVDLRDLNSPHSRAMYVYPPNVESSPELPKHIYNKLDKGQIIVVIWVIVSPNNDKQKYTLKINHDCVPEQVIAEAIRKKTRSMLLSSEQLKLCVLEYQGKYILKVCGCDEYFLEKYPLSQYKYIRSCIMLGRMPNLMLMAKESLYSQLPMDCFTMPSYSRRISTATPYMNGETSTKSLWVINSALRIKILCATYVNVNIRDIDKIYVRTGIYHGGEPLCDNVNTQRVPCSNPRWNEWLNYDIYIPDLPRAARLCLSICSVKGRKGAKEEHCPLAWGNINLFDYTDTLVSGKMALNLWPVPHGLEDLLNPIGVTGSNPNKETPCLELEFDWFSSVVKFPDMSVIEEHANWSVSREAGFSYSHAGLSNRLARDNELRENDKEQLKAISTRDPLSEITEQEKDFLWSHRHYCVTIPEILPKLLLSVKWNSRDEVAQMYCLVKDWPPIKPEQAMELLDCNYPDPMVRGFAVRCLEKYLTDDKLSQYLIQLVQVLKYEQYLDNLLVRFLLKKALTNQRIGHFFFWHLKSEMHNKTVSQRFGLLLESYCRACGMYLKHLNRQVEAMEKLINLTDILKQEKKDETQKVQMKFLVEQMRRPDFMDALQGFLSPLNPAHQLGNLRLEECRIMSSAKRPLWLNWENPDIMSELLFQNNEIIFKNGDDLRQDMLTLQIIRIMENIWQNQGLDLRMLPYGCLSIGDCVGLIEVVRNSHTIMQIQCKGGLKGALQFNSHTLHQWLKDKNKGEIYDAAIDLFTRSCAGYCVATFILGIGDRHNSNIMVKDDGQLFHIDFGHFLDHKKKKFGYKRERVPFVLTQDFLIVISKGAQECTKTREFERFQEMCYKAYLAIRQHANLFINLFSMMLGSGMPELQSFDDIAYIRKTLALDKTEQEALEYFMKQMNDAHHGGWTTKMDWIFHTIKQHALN

pIC50 | pKi | Structure (SMILES)
7.00 | – | NCC(=O)N1CCN(c2nc(N3CCOCC3)cc(-n3c(C(F)F)nc4ccccc43)n2)CC1
7.00 | – | NCc1ccc(NC(=O)c2cccc(-c3cc(N4CCOCC4)nc(-c4cccc(CO)c4)n3)c2)cc1
6.28 | – | CCOC(=O)N1CCC(n2ncc3c(N4CCO[C@@H](C)C4)nc(-c4ccc(NC(=O)NCCF)cc4)nc32)CC1
7.00 | – | O=C(Nc1cccc(-c2cc(N3CCOCC3)nc(-c3cccc(CO)c3)n2)c1)C1CCNCC1
6.29 | – | CCOC(=O)N1CCC(n2ncc3c(N4CCO[C@H](C)C4)nc(-c4ccc(NC(=O)Nc5ccncc5)cc4)nc32)CC1
6.87 | – | CCc1ncnc(N2CCC3(CCN(C)CC3)CC2)c1C#Cc1ccc(N)nc1
6.52 | – | O=C(Nc1cccc(-c2cc(N3CCOCC3)nc(-c3cccc(CO)c3)n2)c1)N1CCNCC1
7.35 | – | NC(=O)c1ccc(NC(=O)Nc2ccc(-c3cc(N4CC5CCC(C4)O5)nc(-c4ccc(NC(=O)Nc5ccc(C(N)=O)cc5)cc4)n3)cc2)cc1
6.26 | – | CCNC(=O)Nc1ccc(-c2nc(N3CCO[C@@H](C)C3)c3cnn(C4CCN(C(=O)OCC)CC4)c3n2)cc1
6.77 | – | Cc1nc(N)nc(-c2c(Nc3ccn[nH]3)nc3ccc(CCC(O)CO)cn23)n1 (stereo not drawn)
6.52 | – | NCC(=O)N1CCC(c2cc(N3CCOCC3)nc(-n3c(C(F)F)nc4ccccc43)n2)CC1
6.00 to 8.00 | – | Cn1c(=NC#N)n(-c2ccc(C(C)(C)C#N)nc2)c2c3cc(-c4ccnc(N5CCOCC5)c4Cl)ccc3ncc21
6.22 | – | NC(=O)[C@@H]1CCCCN1C1CCN(c2nc(N3CCOCC3)cc(-n3c(C(F)F)nc4ccccc43)n2)CC1
5.64 | – | O=C(Nc1ccc(-c2cc(-n3c(C(F)F)nc4ccccc43)nc(N3CCOCC3)n2)cc1)[C@@H]1CCCCN1
– | 7.92 | Cc1nc(N)nc(-c2cc(Cl)cnc2Nc2cnc(Cl)c(NS(=O)(=O)N(C)C)c2)n1
– | 7.40 | NC(=O)[C@@H]1CCCN1C(=O)Nc1nc2ccc(-c3cnc(N)c(C(F)(F)F)c3)cc2s1
4.70 | – | Cc1nc(NCC(=O)N(C)C)cc(-c2c(Nc3ccn(C)n3)nc3cccnn23)n1
5.34 | – | CCOC(=O)N1CCC(n2ncc3c(N4CCO[C@H](C)C4)nc(-c4ccc(NC(=O)NCCF)cc4)nc32)CC1
7.96 | – | COc1cccc(Nc2nc(-c3cccc4[nH]nc(N)c34)nc3c2cnn3C)c1OC
– | 7.60 | COCCOc1cnc(Nc2cnc(Cl)c(NS(C)(=O)=O)c2)c(-c2nc(C)nc(N)n2)c1
6.98 | – | Cc1ncnc(N2CCC(=O)CC2)c1C#Cc1ccc(N)nc1
6.70 | – | NC(=O)[C@@H]1CCCN1CC(=O)N1CCN(c2nc(N3CCOCC3)cc(-n3c(C(F)F)nc4ccccc43)n2)CC1
8.77 | – | COc1cccc(Nc2nc(-c3cccc4onc(N)c34)nc3c2cnn3C)c1OC
7.70 | – | Nc1ncc(-c2nc(N3CCOCC3)nc3c2CCN3c2ccc(CN3CCN(CCCCF)CC3)cc2)cn1
7.11 | – | CCOC1CCN(c2ncnc(CC)c2C#Cc2ccc(N)nc2)CC1
7.82 | – | CCC1(O)CCN(c2ncnc(C)c2C#Cc2ccc(N)nc2)CC1

The compounds below were run against MAPK14 (UniProt Q16539) (assay: Inhibition of MAPK14 Kinase Activity). Settings: not given.
Chain of MAPK14 (Q16539 whole entry, looked up): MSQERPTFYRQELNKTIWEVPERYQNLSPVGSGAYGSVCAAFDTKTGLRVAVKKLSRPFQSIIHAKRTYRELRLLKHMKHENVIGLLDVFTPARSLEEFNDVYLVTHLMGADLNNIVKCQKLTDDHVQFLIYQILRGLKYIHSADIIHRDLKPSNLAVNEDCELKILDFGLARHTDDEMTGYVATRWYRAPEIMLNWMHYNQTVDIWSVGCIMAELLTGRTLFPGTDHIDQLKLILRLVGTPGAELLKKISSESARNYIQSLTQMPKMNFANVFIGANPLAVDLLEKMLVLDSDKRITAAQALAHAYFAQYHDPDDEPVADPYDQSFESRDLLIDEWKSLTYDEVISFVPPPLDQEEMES

pIC50 | Structure (SMILES)
< 4.70 | Cc1ccc2ncc(C3=C(c4cn5c6c(cccc46)CN(C(=O)N4CCCCC4)CC5)C(=O)NC3=O)n2c1
< 6.00 | FC(F)(F)c1cnc(Nc2ccc3[nH]cnc3c2)nc1Nc1ccc2[nH]cnc2c1
6.20 | CSc1nc(-c2ccc(F)cc2)c(-c2ccncc2)[nH]1
< 6.00 | COc1ccc(Nc2nc(Nc3ccc4nc[nH]c4c3)ncc2C(F)(F)F)cc1
7.64 | NC(=O)c1cc(Cl)c(N2C(=O)NCc3nc(Sc4ccc(F)cc4)ccc32)c(Cl)c1
6.85 | COc1cc2ncnc(Nc3cccc(NC(=O)c4ccccc4)c3)c2cc1OC
5.66 | CN1N=C(c2ccccc2F)Oc2cnc(NC3CCOCC3)nc21
5.11 | CCOc1cc2cnc(NC(CCOC)CCOC)nc2[nH]c1=O
< 5.00 | CCOc1ccc2nc(NC(CCO)CCO)ncc2c1

Structure (SMILES) | pIC50
O=c1ncn2nc(Sc3ccc(F)cc3)ccc2c1-c1c(Cl)cccc1Cl | 7.00

Same assay, conditions: concentration not given here

inhibition [%] | Structure (SMILES)
18 | Nc1n[nH]c(N)c1N=Nc1ccc(O)cc1

Each compound was assayed against MAPK14 (human) (UniProt Q16539) (assay: Inhibition of MAPK14 Kinase Activity). Settings: concentration not given here.
Chain of MAPK14 (human) (Q16539 whole entry, looked up): as above

activity [%] | Structure (SMILES)
82 | Nc1n[nH]c(N)c1N=Nc1ccc(O)cc1

Each compound was assayed against CDK2 (UniProt P24941) (assay: Enzyme Assay). Settings: not given.

pIC50 | Structure (SMILES)
< 4.70 | Cc1ccc2ncc(C3=C(c4cn5c6c(cccc46)CN(C(=O)N4CCCCC4)CC5)C(=O)NC3=O)n2c1
7.72 | FC(F)(F)c1cnc(Nc2ccc3[nH]cnc3c2)nc1Nc1ccc2[nH]cnc2c1

Same assay, conditions: concentration not given here

activity [%] | inhibition [%] | Structure (SMILES)
31 | 69 | Nc1n[nH]c(N)c1N=Nc1ccc(O)cc1

The compounds below were run against MAPK14 (human) (UniProt Q16539) (assay: Assessment of MAPK14 Kinase Activity). Settings: not given.

pIC50 | Structure (SMILES)
7.16 and 7.15 | CSc1nc(-c2ccc(F)cc2)c(-c2ccncc2)[nH]1

Source: the Kinase Knowledgebase extract (Sharma et al. 2016)
